From patent US20260285859A1, “BI-CYCLIC PYRIMIDINE COMPOUNDS, METHODS AND USES THEREOF” (Zeno Management, Inc., priority 2023, published 2026)

Columns and labels:
[1] = molecular target: WEE1 (Homo sapiens, UniProt P30291); assay: LanthaScreen Eu Kinase Binding Assay, WEE1
Protocol: (§1) Binding of the tracer to the kinase is detected using a europium-labeled anti-GST antibody, which binds to the fused tag on the kinase protein. […] Inhibitor binding to the kinase competes with tracer binding, resulting in loss of FRET from the donor/acceptor pairs.
(§2) Kinase/Antibody Mixtures and Tracer are diluted to a 2× and 4× working concentration, respectively in this same buffer. […] 0% displacement (no known inhibitor) and 100% displacement (highest concentration of known inhibitor) controls were included on each plate for maximum and minimum Emission Ratio determination, respectively. Dasatinib was used for both PKMYT1 and WEE1 as the known inhibitor.
(§3) IC50 determination was performed using a non-linear regression, variable slope (four parameter), inhibitor v. response equation (Prism 9.0).

[2] = molecular target: T1, PKMYT1 (Homo sapiens, UniProt Q99640); assay: LanthaScreen Eu Kinase Binding Assay, PKMYT1
T1 sequence (Q99640 1-499): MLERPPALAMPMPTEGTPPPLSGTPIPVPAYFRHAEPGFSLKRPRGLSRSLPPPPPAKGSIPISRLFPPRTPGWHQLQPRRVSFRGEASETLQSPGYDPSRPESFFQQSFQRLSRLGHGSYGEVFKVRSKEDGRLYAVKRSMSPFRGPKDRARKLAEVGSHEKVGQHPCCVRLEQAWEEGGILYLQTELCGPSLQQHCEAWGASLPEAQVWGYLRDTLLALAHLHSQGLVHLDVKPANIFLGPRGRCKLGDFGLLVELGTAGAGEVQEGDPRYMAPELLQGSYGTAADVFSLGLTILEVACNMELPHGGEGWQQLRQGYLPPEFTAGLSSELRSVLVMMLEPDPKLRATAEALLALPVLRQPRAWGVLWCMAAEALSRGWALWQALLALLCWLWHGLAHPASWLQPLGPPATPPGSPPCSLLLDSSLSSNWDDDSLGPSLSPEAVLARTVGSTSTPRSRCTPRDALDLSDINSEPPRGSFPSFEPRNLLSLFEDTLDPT
Protocol: as §1, §2, §3

WEE1, sequence (P30291 whole entry): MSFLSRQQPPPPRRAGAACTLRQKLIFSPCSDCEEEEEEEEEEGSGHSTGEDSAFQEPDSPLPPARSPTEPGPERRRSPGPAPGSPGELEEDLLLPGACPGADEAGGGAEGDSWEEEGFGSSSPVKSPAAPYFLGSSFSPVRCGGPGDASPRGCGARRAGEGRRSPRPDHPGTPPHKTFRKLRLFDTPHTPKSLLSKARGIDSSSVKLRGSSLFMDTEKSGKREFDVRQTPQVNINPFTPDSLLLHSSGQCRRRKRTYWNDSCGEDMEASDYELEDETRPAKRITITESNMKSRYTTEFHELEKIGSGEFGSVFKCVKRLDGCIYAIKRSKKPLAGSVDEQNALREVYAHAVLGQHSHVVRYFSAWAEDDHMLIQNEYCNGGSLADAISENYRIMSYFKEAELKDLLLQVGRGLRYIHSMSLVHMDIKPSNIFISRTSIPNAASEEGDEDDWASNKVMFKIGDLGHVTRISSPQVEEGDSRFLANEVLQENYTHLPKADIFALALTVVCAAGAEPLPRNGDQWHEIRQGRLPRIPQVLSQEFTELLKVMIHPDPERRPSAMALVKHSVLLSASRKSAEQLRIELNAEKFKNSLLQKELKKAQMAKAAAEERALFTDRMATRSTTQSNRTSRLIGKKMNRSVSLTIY

Row | Structure (SMILES) | IC50 [1] [nM] | IC50 [2] [nM]
1 | Cc1ccc(O)c(C)c1-c1nc(N(C)CCO)cc2c(N)ncnc12 (racemic) [Compound 47-A, 3-(4-amino-6-((2-hydroxyethyl)(methyl)amino)pyrido[3,4-d]pyrimidin-8-yl)-2,4-dimethylphenol] | > 1000 | 10 to 100
2 | CNc1cc2c(N)ncnc2c(-c2c(C)ccc(O)c2C)n1 (single isomer, unassigned) [Compound 1-B] | > 1000 | 10 to 100
3 | Cc1ccc(O)c(C)c1-c1nc(N2CCC(F)(F)C2)cc2c(N)ncnc12 (single isomer, unassigned) [Compound 2-B] | 100 to 1000 | < 10
4 | Cc1ccc(O)c(C)c1-c1nc(N2CC[C@@H](O)C2)cc2c(N)ncnc12 (single isomer, unassigned) [Compound 3-B] | > 1000 | < 10
5 | Cc1ccc(O)c(C)c1-c1nc(N2CC[C@H](O)C2)cc2c(N)ncnc12 (single isomer, unassigned) [Compound 4-B] | > 1000 | 10 to 100
6 | Cc1ccc(O)c(C)c1-c1nc(N2CC(F)(F)C2)cc2c(N)ncnc12 (single isomer, unassigned) [Compound 5-B] | > 1000 | 10 to 100
7 | Cc1ccc(O)c(C)c1-c1nc(N2CCCC2)cc2c(N)ncnc12 (single isomer, unassigned) [Compound 6-B] | > 1000 | < 10
8 | Cc1ccc(O)c(C)c1-c1nc(N2CCOCC2)cc2c(N)ncnc12 (single isomer, unassigned) [Compound 7-B] | > 1000 | < 10
9 | Cc1ccc(O)c(C)c1-c1nc(N=S(C)(C)=O)cc2c(N)ncnc12 (single isomer, unassigned) [Compound 8-B] | > 1000 | 10 to 100
10 | COCCN(C)c1cc2c(N)ncnc2c(-c2c(C)ccc(O)c2C)n1 (single isomer, unassigned) [Compound 9-B] | > 1000 | 10 to 100
11 | Cc1ccc(O)c(C)c1-c1nc(N(C)C)cc2c(N)ncnc12 (single isomer, unassigned) [Compound 10-B] | > 1000 | < 10
12 | Cc1ccc(O)c(C)c1-c1nc(N2CCC(O)CC2)cc2c(N)ncnc12 (single isomer, unassigned) [Compound 11-B] | > 1000 | < 10
13 | Cc1ccc(O)c(C)c1-c1nc(N(C)C(C)C)cc2c(N)ncnc12 (single isomer, unassigned) [Compound 12-B] | > 1000 | < 10
14 | Cc1ccc(O)c(C)c1-c1nc(N2CC[C@](C)(O)C2)cc2c(N)ncnc12 (single isomer, unassigned) [Compound 13-E] | > 1000 | 10 to 100
15 | Cc1ccc(O)c(C)c1-c1nc(N[C@H]2C[C@H](O)C2)cc2c(N)ncnc12 (single isomer, unassigned) [Compound 15-B] | > 1000 | 10 to 100
16 | Cc1ccc(O)c(C)c1-c1nc(NS(C)(=O)=O)cc2c(N)ncnc12 (single isomer, unassigned) [Compound 16-B] | > 1000 | 10 to 100
17 | Cc1ccc(O)c(C)c1-c1nc(C2CC2)cc2c(N)ncnc12 (single isomer, unassigned) [Compound 18-B] | > 1000 | < 10
18 | Cc1ccc(O)c(C)c1-c1nc(-c2cnn(C)c2)cc2c(N)ncnc12 (single isomer, unassigned) [Compound 19-B] | 100 to 1000 | < 10
19 | Cc1ccc(O)c(C)c1-c1nc(N2CCCC(F)(F)C2)cc2c(N)ncnc12 (single isomer, unassigned) [Compound 20-B] | 100 to 1000 | < 10
20 | Cc1ccc(O)c(C)c1-c1nc(N(C)C2CC2)cc2c(N)ncnc12 (single isomer, unassigned) [Compound 21-B] | 100 to 1000 | < 10
21 | Cc1ccc(O)c(C)c1-c1nc(N2CC(C)(CO)C2)cc2c(N)ncnc12 (single isomer, unassigned) [Compound 22-B] | > 1000 | 10 to 100
22 | COC[C@H]1CCN(c2cc3c(N)ncnc3c(-c3c(C)ccc(O)c3C)n2)C1 (single isomer, unassigned) [Compound 23-B] | > 1000 | < 10
23 | COC[C@@H]1CCN1c1cc2c(N)ncnc2c(-c2c(C)ccc(O)c2C)n1 (single isomer, unassigned) [Compound 24-B] | > 1000 | 10 to 100
24 | COC[C@H]1CCN1c1cc2c(N)ncnc2c(-c2c(C)ccc(O)c2C)n1 (single isomer, unassigned) [Compound 25-B] | > 1000 | 10 to 100
25 | COC1CN(c2cc3c(N)ncnc3c(-c3c(C)ccc(O)c3C)n2)C1 (single isomer, unassigned) [Compound 26-B] | > 1000 | 10 to 100
26 | CCN(C)c1cc2c(N)ncnc2c(-c2c(C)ccc(O)c2C)n1 (single isomer, unassigned) [Compound 27-B] | > 1000 | < 10

Row | Structure (SMILES) | IC50 [1] [nM] | IC50 [2] [nM]
27 | Cc1ccc(O)c(C)c1-c1nc(N(C)CC(F)F)cc2c(N)ncnc12 (single isomer, unassigned) [Compound 28-B] | > 1000 | < 10
28 | Cc1ccc(O)c(C)c1-c1nc(N(C)CC(F)(F)F)cc2c(N)ncnc12 (single isomer, unassigned) [Compound 29-B] | > 1000 | < 10
29 | Cc1ccc(O)c(C)c1-c1nc(N(C)CC2CC2)cc2c(N)ncnc12 (single isomer, unassigned) [Compound 30-B] | > 1000 | < 10
30 | Cc1ccc(O)c(C)c1-c1nc(-c2ccc(F)cc2F)cc2c(N)ncnc12 (single isomer, unassigned) [Compound 31-B] | 100 to 1000 | < 10
31 | C#Cc1cc2c(N)ncnc2c(-c2c(C)ccc(O)c2C)n1 (single isomer, unassigned) [Compound 33-B] | > 1000 | < 10
32 | Cc1ccc(O)c(C)c1-c1nc(C(=O)N2CCCC2)cc2c(N)ncnc12 (single isomer, unassigned) [Compound 34-B] | > 1000 | 100 to 1000
33 | Cc1ccc(O)c(C)c1-c1nc(CC(=O)N2CCOCC2)cc2c(N)ncnc12 (single isomer, unassigned) [Compound 35-B] | > 1000 | 100 to 1000
34 | CCN(c1cc2c(N)ncnc2c(-c2c(C)ccc(O)c2C)n1)C1CC1 (single isomer, unassigned) [Compound 36-B] | 100 to 1000 | < 10
35 | Cc1ccc(O)c(C)c1-c1nc(N(C)C2CCC2)cc2c(N)ncnc12 (single isomer, unassigned) [Compound 37-B] | 100 to 1000 | < 10
36 | Cc1ccc(O)c(C)c1-c1nc(N2CC[C@]3(CCO3)C2)cc2c(N)ncnc12 (single isomer, unassigned) [Compound 38-B] | > 1000 | < 10
37 | Cc1ccc(O)c(C)c1-c1nc(C(F)(F)F)cc2c(N)ncnc12 (single isomer, unassigned) [Compound 39-B] |  | 10 to 100
38 | Cc1ccc(O)c(C)c1-c1nc(C2CCC2)cc2c(N)ncnc12 (single isomer, unassigned) [Compound 40-B] | > 1000 | < 10
39 | Cc1ccc(O)c(C)c1-c1nc(N(C)CCC#N)cc2c(N)ncnc12 (single isomer, unassigned) [Compound 41-B] | > 1000 | < 10
40 | Cc1ccc(O)c(C)c1-c1nc(N(C)C2(C(F)(F)F)CC2)cc2c(N)ncnc12 (single isomer, unassigned) [Compound 42-B] | 100 to 1000 | < 10
41 | Cc1ccc(O)c(C)c1-c1nc(N2CCCC2=O)cc2c(N)ncnc12 (single isomer, unassigned) [Compound 43-B] | > 1000 | < 10
42 | Cc1ccc(O)c(C)c1-c1nc(N(C)C2CCCC2)cc2c(N)ncnc12 (single isomer, unassigned) [Compound 44-B] | 100 to 1000 | < 10
43 | CC[C@H](C)N(C)c1cc2c(N)ncnc2c(-c2c(C)ccc(O)c2C)n1 (single isomer, unassigned) [Compound 45-B] | > 1000 | 10 to 100
44 | Cc1ccc(O)c(C)c1-c1nc(N(C)c2cnn(C)c2)cc2c(N)ncnc12 (single isomer, unassigned) [Compound 46-B] | > 1000 | < 10
45 | Cc1ccc(O)c(C)c1-c1nc(C(F)F)cc2c(N)ncnc12 (single isomer, unassigned) [Compound 48-B] | > 1000 | 10 to 100
46 | COc1cc2c(N)ncnc2c(-c2c(C)ccc(O)c2C)n1 (single isomer, unassigned) [Compound 49-B] | > 1000 | 10 to 100
47 | Cc1ccc(O)c(C)c1-c1nc(C(C)C)cc2c(N)ncnc12 (single isomer, unassigned) [Compound 50-B] | > 1000 | 10 to 100
48 | Cc1ccc(O)c(C)c1-c1c(C)c(N(C)C)cc2c(N)ncnc12 (single isomer, unassigned) [Compound 51-B] | > 1000 | 10 to 100
49 | Cc1cc2c(N)ncnc2c(-c2c(C)ccc(O)c2C)c1C (single isomer, unassigned) [Compound 52-B] | > 1000 | 10 to 100
50 | Cc1cc(-c2c(C)ccc(O)c2C)c2ncnc(N)c2c1 (single isomer, unassigned) [Compound 53-B] | > 1000 | 10 to 100
51 | Cc1cc2c(C(N)=O)c(N)n(-c3c(C)ccc(O)c3C)c2nc1C [RP-6306, Lunresertib, reference compound] | 10 to 100 | 
